Assay results reported in patent publication US7868026B2, “Therapeutic compounds” (Pfizer Inc., priority 2005, dated 2011).
Read-outs that look alike come from different tables or passages of the source.

Experiments:
Assay type in all cases: biochemical
CYP3A4 [1] = biological target: T1, CYP3A4 (Homo sapiens, UniProt P08684); assay: Determination of IC50 against CYP3A4 by measurement of inhibition of testosterone metabolism (human liver microsomes, 6-β-OH-testosterone by LC-MS/MS); set-up: 0.1 mg/mL human liver microsomes; settings: read-out: IC50 (Testo.)
Protocol: 2. Determination of IC50 Against CYP3A4 by Measurement of Inhibition of Testosterone Metabolism
This assay was performed using a standard 96 well plate design. […] The incubation substrate mix contains 25 μM testosterone, 0.1 mg/mL human liver microsomes, 1 mM NADPH, and potassium phosphate buffer (100 mM, pH 7.4). Quantitation of metabolite peak area ratio against an internal standard is determined by LC-MS/MS analysis. The production of 6-β-OH-testosterone from testosterone metabolism is determined after incubation for eight minutes by comparison to a standard curve generated for the metabolite
Samples were analyzed in the MRM mode using a Sciex API 3000 mass spectrometer (Applied Biosystems, Foster City, Calif.) with a Paradigm MS4 binary pump (Michrom BioResources Inc., Auburn, Calif.) and a LEAP CTC PAL autosampler (LEAP Technologies, Carrboro, N.C.). A Phenomenex Synergi, 4μ, Polar-RP, 10×2.0 mm column (Phenomenex, Torrance, Calif.) was used for separation with a mobile phase composition of: 0.1% formic acid in water (A) and: 0.1% formic acid in methanol (B). The following gradient was used: […]
The sample injection volume was 10 μL and flow was split post-column with 0.4 mL/min going to the mass spectrometer. Analysis was performed using the following API 3000 mass spectrometer settings: […]

CYP3A4 [2] = biological target: T1, CYP3A4; assay: Determination of compound Kiapp against recombinant CYP3A4 enzyme (BFC fluorescent substrate)
In short: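 Recombinant CYP3A4 (5.5 or 8 nM, with or without b5 depending on source) pre-incubated with inhibitor ≥30 min at room temperature in 100 mM sodium phosphate pH 7.0, 5 mM TCEP, 2% DMF. Reaction started with 200 uM NADPH and 5 uM BFC; initial fluorescence rates over 5 min fitted to Morrison tight-binding (non-partial) or Szedlacsek (partial) equations for Kiapp.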

CYP3A4 [3] = biological target: T1, CYP3A4; assay: Determination of IC50 against CYP3A4 by measurement of inhibition of midazolam metabolism (human liver microsomes, 1-hydroxymidazolam by LC-MS/MS); set-up: 0.1 mg/mL human liver microsomes; settings: 2 μM midazolam, 0.1 mg/mL human liver microsomes
In short: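 Human liver microsomes (0.1 mg/mL) incubated 8 min with 2 μM midazolam and 1 mM NADPH in 100 mM potassium phosphate, pH 7.4. 1-Hydroxymidazolam quantified by LC-MS/MS (MRM) as peak area ratio to internal standard against a metabolite standard curve.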

[4] = Baculo. enzyme preparation, read-out: Kiapp (BFC, Baculo.)
[5] = Super. enzyme preparation, read-out: Kiapp (BFC, Super.)

T1 sequence (P08684 whole entry): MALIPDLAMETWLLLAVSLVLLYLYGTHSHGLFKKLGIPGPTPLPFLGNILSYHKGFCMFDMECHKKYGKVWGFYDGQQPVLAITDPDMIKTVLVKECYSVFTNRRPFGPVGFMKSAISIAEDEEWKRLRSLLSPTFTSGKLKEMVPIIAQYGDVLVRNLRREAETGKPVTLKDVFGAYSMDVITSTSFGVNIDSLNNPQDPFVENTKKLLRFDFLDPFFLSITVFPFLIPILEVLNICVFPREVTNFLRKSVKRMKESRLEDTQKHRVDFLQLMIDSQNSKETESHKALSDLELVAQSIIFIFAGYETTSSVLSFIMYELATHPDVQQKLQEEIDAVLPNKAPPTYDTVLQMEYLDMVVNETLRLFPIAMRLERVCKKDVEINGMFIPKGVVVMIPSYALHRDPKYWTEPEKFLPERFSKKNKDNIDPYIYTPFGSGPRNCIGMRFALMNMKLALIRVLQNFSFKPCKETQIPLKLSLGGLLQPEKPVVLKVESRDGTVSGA

SMILES | IC50 (CYP3A4 [1]) [nM] | Ki (CYP3A4 [2]; [4]) [nM] | Ki (CYP3A4 [2]; [5]) [nM] | IC50 (CYP3A4 [3]) [nM]
CCOc1cncc(NS(=O)(=O)c2ccccc2C(=O)N(C)Cc2ccc(F)c(F)c2)c1 [Example 289, N-(3,4-difluorobenzyl)-2-{[(5-ethoxypyridin-3-yl)amino]sulfonyl}-N-methylbenzamide] | 27 | 5.9 | 4.97 | 15
CC(C)(CN1CCOCC1)NC(=O)c1ccccc1S(=O)(=O)Nc1cccnc1 [Example 33, N-(1,1-dimethyl-2-morpholin-4-ylethyl)-2-[(pyridin-3-ylamino)sulfonyl]benzamide] | 473 | > 1000 |  | 111
Cc1cncc(NS(=O)(=O)c2ccccc2C(=O)N(C)CC2CCCC2)c1 [Example 347, N-(cyclopentylmethyl)-N-methyl-2-{[(5-methylpyridin-3-yl)amino]sulfonyl}benzamide] | 26 | 34.7 | 5.4 | 13
COc1cncc(NS(=O)(=O)c2ccccc2C(=O)NCCC2CCCN2C)c1 (stereo not shown) [Example 387, 2-{[(5-methoxypyridin-3-yl)amino]sulfonyl}N[2-(1-methylpyrrolidin-2-yl)ethyl]benzamide] | > 750 | > 1000 | 224 | > 750
O=C(NCc1ccccc1F)c1ccccc1S(=O)(=O)Nc1cccnc1 [Example 5, N-(2-fluorobenzyl)-2-[(pyridin-3-ylamino)sulfonyl]benzamide] | 66 | 55.9 | 5.8 | 41
CCCCCN(C)C(=O)c1ccccc1S(=O)(=O)Nc1cccnc1 [Example 47, N-methyl-N-pentyl-2-[(pyridin-3-ylamino)sulfonyl]benzamide] | 30 | 332 |  | 26
Cc1cncc(NS(=O)(=O)c2ccccc2C(=O)N(C)Cc2cccc(F)c2)c1 [Example 349, N-(3-fluorobenzyl)-N-methyl-2-{[(5-methylpyridin-3-yl)amino]sulfonyl}benzamide] | 25 | 56.4 | 7.4 | 11
COc1cncc(NS(=O)(=O)c2ccccc2C(=O)NCCc2ccccc2Cl)c1 [Example 240, N-[2-(2-chlorophenyl)ethyl]-2-{[(5-methoxypyridin-3-yl)amino]sulfonyl}benzamide] | 9 | 22 | 3.2 | 4
Cc1ccncc1NS(=O)(=O)c1ccccc1C(=O)NC(C)(C)C [Example 178, N-(tert-butyl)-2-{[(4-methylpyridin-3-yl)amino]sulfonyl}benzamide] | 97 | > 1000 | 106 | 70
O=C(NCC1CC1)c1ccccc1S(=O)(=O)Nc1cccnc1 [Example 48, N-(cyclopropylmethyl)-2-[(pyridin-3-ylamino)sulfonyl]benzamide] | 335 | > 1000 |  | 327
COc1cncc(NS(=O)(=O)c2ccccc2C(=O)N[C@@H](C)C(C)(C)C)c1 [Example 210, 2-{[(5-methoxypyridin-3-yl)amino]sulfonyl}-N-[(1S)-122-trimethylpropyl]benzamide] | 49 | 286 | 39.6 | 10
CCOc1ccncc1NS(=O)(=O)c1ccccc1C(=O)NC(C)(C)C [Example 249, N-(tert-butyl)-2-{[(4-ethoxy-pyridin-3-yl)amino]sulfonyl} benzamide] | 45 | 60.1 | 37.7 | 28.5
COCCN(C)C(=O)c1ccccc1S(=O)(=O)Nc1cnccc1OC [Example 161, N-(2-methoxyethyl)-2-{[(4-methoxypyridin-3-yl)amino]sulfonyl}-N-methylbenzamide] | 371 | > 1000 | 418 | 308
CCCN(CC1CC1)C(=O)c1ccccc1S(=O)(=O)N(C)c1cncc(OC)c1 [Example 329, N-(cyclopropylmethyl)-2-{[(5-methoxypyridin-3-yl)(methyl)amino]sulfonyl}-N-propylbenzamide] | 58 | 34 | 17.7 | 32
COc1cccc(OC)c1CNC(=O)c1ccccc1S(=O)(=O)Nc1cccnc1 [Example 45, N-(2,6-dimethoxybenzyl)-2-[(pyridin-3-ylamino)sulfonyl]benzamide] | 42 | 382 |  | 20
O=C(NCc1cccc(F)c1F)c1ccccc1S(=O)(=O)Nc1cccnc1 [Example 87, N-(2,3-difluorobenzyl)-2-[(pyridin-3-ylamino)sulfonyl]benzamide] | 10 | 90 | 6.3 | 30
CN(C)CCNC(=O)c1ccccc1S(=O)(=O)Nc1cccnc1 [Example 37] | > 750 | > 1000 |  | > 750
CC1CCN(C(=O)c2ccccc2S(=O)(=O)Nc2cccnc2)CC1 [Example 41, 2-[(4-methylpiperidin-1-yl)carbonyl]-N-pyridin-3-ylbenzenesulfonamide] | 83.4 | 486 | 30.3 | 62.8
O=C(NCCOc1ccccc1)c1ccccc1S(=O)(=O)Nc1cccnc1 [Example 56, N-(2-phenoxyethyl)-2-[(pyridin-3-ylamino)sulfonyl]benzamide] | 62 | 340 | 22.4 | 48.9
COc1ccncc1NS(=O)(=O)c1ccccc1C(=O)NC(C)C1CC1 (stereo not shown) [Example 276, N-(1-cyclopropylethyl)-2-{[(4-methoxypyridin-3-yl)amino]sulfonyl}benzamide] | 134 | 563 | 62.9 | 71
COc1cncc(NS(=O)(=O)c2ccccc2C(=O)N[C@H]2C[C@@H]2c2ccccc2)c1 [Example 232, 2-{[(5-methoxypyridin-3-yl)amino]sulfonyl}-N-[(1S2R)-2-phenylcyclopropyl]benzamide] | 32 | 99.4 | 11.5 | 28
COc1cncc(NS(=O)(=O)c2ccccc2C(=O)NCCOc2ccccc2)c1 [Example 238, 2-{[(5-methoxypyridin-3-yl)amino]sulfonyl}-N-(2-phenoxyethyl)benzamide] | 31 | 230 | 18 | 17
CCOCCNC(=O)c1ccccc1S(=O)(=O)Nc1cnccc1OC [Example 223, N-(2-ethoxyethyl)-2-{[(4-methoxypyridin-3-yl)amino]sulfonyl}benzamide] | 745 | > 1000 | 326 | 260
COc1ccncc1NS(=O)(=O)c1ccccc1C(=O)NCCc1ccccc1Cl [Example 220, N-[2-(2-chlorophenyl)ethyl]-2-{[(4-methoxypyridin-3-yl)amino]sulfonyl}benzamide] | 11 | 13.7 | 9.1 | 6
CCCCNC(=O)c1ccccc1S(=O)(=O)Nc1cncc(OCC)c1 [Example 306, N-butyl-2-{[(5-ethoxypyridin-3-yl)amino]sulfonyl}benzamide] | 48 | 77.8 | 24.9 | 32
CN1CCN(C(=O)c2ccccc2S(=O)(=O)Nc2cccnc2)CC1 [Example 35, 2-[(4-methylpiperazin-1-yl)carbonyl]-N-pyridin-3-ylbenzenesulfonamide] | > 750 | > 1000 |  | > 750
COc1cncc(NS(=O)(=O)c2ccccc2C(=O)NCc2cccc(F)c2F)c1 [Example 181, N-(2,3-difluorobenzyl)-2-{[(5-methoxypyridin-3-yl)amino]sulfonyl}benzamide] | 13 | 71.8 | 10.8 | 7
CC1CC(C)CN(C(=O)c2ccccc2S(=O)(=O)Nc2cccnc2)C1 (stereo not shown) [Example 25, 2-[(3,5-dimethylpiperidin-1-yl)carbonyl]-N-pyridin-3-ylbenzenesulfonamide] | 77 | 239 |  | 45
COc1cncc(NS(=O)(=O)c2ccccc2C(=O)NCc2ccc(Cl)cc2C)c1 [Example 216] | 7 | 6.9 | 3.5 | 5
O=C(c1ccccc1S(=O)(=O)Nc1cccnc1)N1CCCC1 [Example 20, N-pyridin-3-yl-2-(pyrrolidin-1-ylcarbonyl)benzenesulfonamide] | 445 | > 1000 |  | 379
